Legend:
Format in all cases: in vivo
[1] = system: Kochia (Kochia scoparia); experiment: Test A preemergence; conditions: Bassia scoparia, pre-emergence, 240 h, 0 to 100 scale where 0 is no effect and 100 is complete control, read-out: Kochia plant response rating
Summary of the method: (§1)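 Each rating is a visual injury score from 0 to 100 given about 10 d after treatment, judged against untreated controls kept alongside in the greenhouse. In loam soil–sand blend, seeds got a preemergence directed soil spray, while postemergence plants were 2 to 10 cm tall at spraying.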

[2] = system: barnyardgrass (Echinochloa crus-galli); experiment: Test A preemergence; conditions: Echinochloa crus-galli, pre-emergence, 240 h, 0 to 100 scale where 0 is no effect and 100 is complete control, read-out: Barnyardgrass plant response rating
Summary of the method: as §1

[3] = system: giant foxtail (Setaria faberii); experiment: Test A preemergence; conditions: Setaria faberi, pre-emergence, 240 h, 0 to 100 scale where 0 is no effect and 100 is complete control, read-out: Foxtail, Giant plant response rating
Summary of the method: as §1

[4] = system: pigweed (Amaranthus retroflexus); experiment: Test A preemergence; conditions: Amaranthus retroflexus, pre-emergence, 240 h, 0 to 100 scale where 0 is no effect and 100 is complete control, read-out: Pigweed plant response rating
[5] = system: ragweed (common ragweed, Ambrosia elatior); experiment: Test A preemergence; conditions: Ambrosia artemisiifolia, pre-emergence, 240 h, 0 to 100 scale where 0 is no effect and 100 is complete control, read-out: Ragweed plant response rating
Summary of the method: as §1

[6] = system: ryegrass, Italian (Italian ryegrass, Lolium multiflorum); experiment: Test A preemergence; conditions: Lolium multiflorum, pre-emergence, 240 h, 0 to 100 scale where 0 is no effect and 100 is complete control, read-out: Ryegrass, Italian plant response rating
Summary of the method: as §1

[7] = system: Galium (catchweed bedstraw, Galium aparine); experiment: Test A postemergence; conditions: Galium, post-emergence, 240 h, read-out: Galium plant response rating (0 to 100 scale)
Summary of the method: as §1

[8] = system: Kochia (Kochia scoparia); experiment: Test A postemergence; conditions: Bassia scoparia, post-emergence, 240 h, read-out: Kochia plant response rating (0 to 100 scale)
Summary of the method: as §1

[9] = system: barnyardgrass (Echinochloa crus-galli); experiment: Test A postemergence; conditions: Echinochloa crus-galli, post-emergence, 240 h, read-out: Barnyardgrass plant response rating (0 to 100 scale)
Summary of the method: as §1

[10] = system: blackgrass (Alopecurus myosuroides); experiment: Test A postemergence; conditions: Alopecurus myosuroides, post-emergence, 240 h, read-out: Blackgrass plant response rating (0 to 100 scale)
Summary of the method: as §1

[11] = system: corn (Zea mays); experiment: Test A postemergence; conditions: Zea mays, post-emergence, 240 h, read-out: Corn plant response rating (0 to 100 scale)
Summary of the method: as §1

[12] = system: giant foxtail (Setaria faberii); experiment: Test A postemergence; conditions: Setaria faberi, post-emergence, 240 h, read-out: Foxtail, Giant plant response rating (0 to 100 scale)
Summary of the method: as §1

[13] = system: pigweed (Amaranthus retroflexus); experiment: Test A postemergence; conditions: Amaranthus retroflexus, post-emergence, 240 h, read-out: Pigweed plant response rating (0 to 100 scale)
Summary of the method: as §1

[14] = system: ragweed (common ragweed, Ambrosia elatior); experiment: Test A postemergence; conditions: Ambrosia artemisiifolia, post-emergence, 240 h, read-out: Ragweed plant response rating (0 to 100 scale)
Summary of the method: as §1

[15] = system: ryegrass, Italian (Italian ryegrass, Lolium multiflorum); experiment: Test A postemergence; conditions: Lolium multiflorum, post-emergence, 240 h, read-out: Ryegrass, Italian plant response rating (0 to 100 scale)
Summary of the method: as §1

[16] = system: wheat (Triticum aestivum); experiment: Test A postemergence; conditions: Triticum aestivum, post-emergence, 240 h, Postemergence, 31 g ai/ha; 0 is no effect, 100 is complete control; read-out: Wheat plant response rating (0 to 100 scale)
Summary of the method: as §1

[17] = system: barnyardgrass (Echinochloa crus-galli); experiment: Test B flooded paddy test; conditions: Echinochloa crus-galli, 250 g ai/ha, Flood; 0 to 100 scale where 0 is no effect and 100 is complete control; read-out: Barnyardgrass plant response rating
Summary of the method: (§2)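 Visual ratings (0 none to 100 complete control) are relative to untreated plants, taken 13–15 d after treatment in a greenhouse. Test material went straight into floodwater standing 3 cm above the soil, kept constant, on plants at the 2-leaf stage.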

[18] = system: ducksalad (Heteranthera limosa); experiment: Test B flooded paddy test; conditions: Heteranthera limosa, 250 g ai/ha, Flood; 0 to 100 scale where 0 is no effect and 100 is complete control; read-out: Ducksalad plant response rating
Summary of the method: as §2

[19] = system: rice (Oryra sativa); experiment: Test B flooded paddy test; conditions: Oryza sativa, 250 g ai/ha, Flood; 0 to 100 scale where 0 is no effect and 100 is complete control; read-out: Rice plant response rating
Summary of the method: as §2

[20] = system: sedge, umbrella (small-flower umbrella sedge, Cyperus difformis); experiment: Test B flooded paddy test; conditions: Cyperus difformis, 250 g ai/ha, Flood; 0 to 100 scale where 0 is no effect and 100 is complete control; read-out: Sedge, Umbrella plant response rating
Summary of the method: as §2

[21] = 125 g ai/ha, preemergence, visual injury rating, approximately 10 d
[22] = 125 g ai/ha, postemergence, visual injury vs untreated controls after approx. 10 d, 0 = no effect, 100 = complete control
[23] = Postemergence, 31 g ai/ha, 0 is no effect, 100 is complete control

With Cn1ccc2ccc([C@H]3CNC(=O)[C@@H]3C(=O)Nc3cccc(F)c3F)cc21 [Compound 1263] as the molecule, how does the pest or weed control at 31 g/ha ([1]; 31 g ai/ha, Preemergence) read?
The pest or weed control at 31 g/ha was 0%.

And the pest or weed control at 125 g/ha [1, 21]?
The pest or weed control at 125 g/ha was 0%.

What about the pest or weed control at 31 g/ha ([2]; 31 g ai/ha, Preemergence) of the same molecule?
Its pest or weed control at 31 g/ha is 0%.

And the pest or weed control at 125 g/ha [2, 21]?
Its pest or weed control at 125 g/ha is 0%.

What about the pest or weed control at 31 g/ha ([3]; 31 g ai/ha, Preemergence) of the same molecule?
Its pest or weed control at 31 g/ha is 0%.

What about the pest or weed control at 125 g/ha [3, 21] of the same molecule?
Its pest or weed control at 125 g/ha is 0%.

And the pest or weed control at 31 g/ha ([4]; 31 g ai/ha, Preemergence)?
Its pest or weed control at 31 g/ha is 0%.

What about the pest or weed control at 125 g/ha [4, 21] of the same molecule?
Its pest or weed control at 125 g/ha is 0%.

What about the pest or weed control at 31 g/ha ([5]; 31 g ai/ha, Preemergence) of the same molecule?
Its pest or weed control at 31 g/ha is 0%.

And the pest or weed control at 125 g/ha [5, 21]?
The pest or weed control at 125 g/ha was 0%.

What about the pest or weed control at 31 g/ha ([6]; 31 g ai/ha, Preemergence) of the same molecule?
The pest or weed control at 31 g/ha was 0%.

What about the pest or weed control at 125 g/ha [6, 21] of the same molecule?
The pest or weed control at 125 g/ha was 0%.

What about the pest or weed control at 125 g/ha [7, 22] of the same molecule?
The pest or weed control at 125 g/ha was 0%.

And the pest or weed control at 31 g/ha [7, 23]?
The pest or weed control at 31 g/ha was 0%.

What about the pest or weed control at 125 g/ha [8, 22] of the same molecule?
Its pest or weed control at 125 g/ha is 0%.

What about the pest or weed control at 31 g/ha [8, 23] of the same molecule?
The pest or weed control at 31 g/ha was 0%.

And the pest or weed control at 125 g/ha [9, 22]?
Its pest or weed control at 125 g/ha is 0%.

And the pest or weed control at 31 g/ha [9, 23]?
The pest or weed control at 31 g/ha was 0%.

What about the pest or weed control at 125 g/ha [10, 22] of the same molecule?
The pest or weed control at 125 g/ha was 0%.

And the pest or weed control at 31 g/ha [10, 23]?
The pest or weed control at 31 g/ha was 0%.

And the plant injury at 125 g/ha [11, 22]?
The plant injury at 125 g/ha was 0%.

What about the plant injury at 31 g/ha [11, 23] of the same molecule?
The plant injury at 31 g/ha was 0%.

What about the pest or weed control at 125 g/ha [12, 22] of the same molecule?
Its pest or weed control at 125 g/ha is 0%.

And the pest or weed control at 31 g/ha [12, 23]?
Its pest or weed control at 31 g/ha is 0%.

And the pest or weed control at 125 g/ha [13, 22]?
Its pest or weed control at 125 g/ha is 0%.

What about the pest or weed control at 31 g/ha [13, 23] of the same molecule?
Its pest or weed control at 31 g/ha is 0%.

And the pest or weed control at 125 g/ha [14, 22]?
Its pest or weed control at 125 g/ha is 0%.

What about the pest or weed control at 31 g/ha [14, 23] of the same molecule?
Its pest or weed control at 31 g/ha is 0%.

And the pest or weed control at 125 g/ha [15, 22]?
Its pest or weed control at 125 g/ha is 0%.

What about the pest or weed control at 31 g/ha [15, 23] of the same molecule?
Its pest or weed control at 31 g/ha is 0%.

What about the plant injury at 31 g/ha [16] of the same molecule?
Its plant injury at 31 g/ha is 0%.

What about the pest or weed control at 250 g/ha [17] of the same molecule?
Its pest or weed control at 250 g/ha is 0%.

What about the pest or weed control at 250 g/ha [18] of the same molecule?
The pest or weed control at 250 g/ha was 30%.

And the pest or weed control at 250 g/ha [19]?
The pest or weed control at 250 g/ha was 0%.

What about the pest or weed control at 250 g/ha [20] of the same molecule?
Its pest or weed control at 250 g/ha is 0%.
